From patent US20200371122A1, “BIOMARKER FOR SENESCENT CELLS” (Buck Institute for Research on Aging, priority 2017, published 2020)

Key:
[1] = tested on: C57BL6/J and p16-3MR mice injured with bleomycin; assay: Bleomycin-induced pulmonary fibrosis in mice; assay type: in vivo, mouse
[2] = tested on: C57BL6/J and p16-3MR mice injured with bleomycin; assay: Bleomycin-induced pulmonary fibrosis in mice; assay type: in vivo, mouse; remark: listed apart in the source
Experimental: RNA was extracted from cells or tissues using commercially available kits (Isolate II—Bioline for cells; Direct-zol—Zymo for tissues) according to the manufacturer's instructions. cDNA synthesis was performed using a High Capacity cDNA Reverse Transcription Kit (Thermo Fisher) according to the manufacturer's instructions. Quantitative PCR was performed on a LightCycler 480 II (Roche) using primers and probes designed for the Universal Probe Library. Primers and probes used for human transcripts were ACTB: 5′-CCAACCGCGAGAAGATGA (SEQ ID NO:1), 5′-TCCATCACGATGCCAGTG (SEQ ID NO:2), Probe #64; TUBA: 5′-cttcgtctccgccatcag (SEQ ID NO:3), 5′-ttgccaatctggacacca (SEQ ID NO:4), Probe #58; ALOX5: 5′-[…] (SEQ ID NO:5), 5′-[…] (SEQ ID NO:6), Probe #64; ALOX5AP: 5′-ggtctgcggggctacttt (SEQ ID NO:7), 5′-[…] (SEQ ID NO:8), Probe #18; ALOX12: 5′-[…] (SEQ ID NO:9), 5′-agccaggtcgtcaggag (SEQ ID NO:10), Probe #32; ALOX15: 5′-[…] (SEQ ID NO:11), 5′-[…] (SEQ ID NO:12), Probe #76; ALOX15B: 5′-[…] (SEQ ID NO:13), 5′-actgggaggcgaagaagg (SEQ ID NO:14), Probe #51; AKR1C1: 5′-catgcctgtcctgggattt (SEQ ID NO:15), 5′-[…] (SEQ ID NO:16), Probe #49; AKR1C2: 5′-ctatgcgcctgcagaggt (SEQ ID NO:17), 5′-[…] (SEQ ID NO:18), Probe #31; AKR1C3: 5′-[…] (SEQ ID NO:19), 5′-[…] (SEQ ID NO:20), Probe #78; CYSLTR2: 5′-[…] (SEQ ID NO:21), 5′-[…] (SEQ ID NO:22), Probe #18; DPEP1: 5′-gacgtcctgaggctggtg (SEQ ID NO:23), 5′-[…] (SEQ ID NO:24), Probe #9 (SEQ ID NO:25), ELOVL2: 5′-[…] (SEQ ID NO:26), 5′-[…] (SEQ ID NO:27), Probe #53; ELOVL4: 5′-catttggcccatggattc (SEQ ID NO:28), 5′-[…] (SEQ ID NO:29), Probe #31; ELOVL5: 5′-cccttccatgcgtccata (SEQ ID NO:30), 5′-[…] (SEQ ID NO:31), Probe #31; EPHX2: 5′-ttctgctggacaccctgaa (SEQ ID NO:32), 5′-[…] (SEQ ID NO:33), Probe #45; GPX4: 5′-ttcccgtgtaaccagttcg (SEQ ID NO:34), 5′-[…] (SEQ ID NO:35), Probe #36; LTA4H: 5′-ctgctctcacggtccagtc (SEQ ID NO:36), 5′-[…] (SEQ ID NO:37), Probe #64; LTBR2: 5′-[…] (SEQ ID NO:38), 5′-[…] (SEQ ID NO:39), Probe #33; LTC4S: 5′-[…] (SEQ ID NO:40), 5′-[…] (SEQ ID NO:41), Probe #18; PTGDS: 5′-[…] (SEQ ID NO:42), 5′-[…] (SEQ ID NO:43), Probe #36; PTGES: 5′-agagatgcctgcccacag (SEQ ID NO:44), 5′-tggccaccacgtacatctt (SEQ ID NO:45), Probe #4; PTGES2: 5′-[…] (SEQ ID NO:46), 5′-[…] (SEQ ID NO:47), Probe #49; PTGES3 (SEQ ID NO:48), 5′-[…] (SEQ ID NO:49), 5′-[…] (SEQ ID NO:50), Probe #48; PTGIS: 5′-[…] (SEQ ID NO:51), 5′-[…] (SEQ ID NO:52), Probe #45; PTGR1: 5′-atgatggggcagcaagtg (SEQ ID NO:53), 5′-cccatcagaaatggagtgc (SEQ ID NO:54), Probe #64; PTGS1: 5′-[…] (SEQ ID NO:55), 5′-gtggtggtccatgttcctg (SEQ ID NO:56), Probe #81; PTGS2: 5′-gatccccagggctcaaac (SEQ ID NO:57), 5′-[…] (SEQ ID NO:58), Probe #61; TBXAS1: 5′-[…] (SEQ ID NO:59), 5′-tgcctcccgtgtgaatct (SEQ ID NO:60), Probe #73; AREG: 5′-[…] (SEQ ID NO:61), 5′-[…] (SEQ ID NO:62), Probe #73; CCL2: 5′-AGTCTCTGCCGCCCTTCT (SEQ ID NO:63), 5′-GTGACTGGGGCATTGATTG (SEQ ID NO:64), Probe #40; CCL27: 5′-[…] (SEQ ID NO:65), 5′-gctgggtggcagtaggaat (SEQ ID NO:66), Probe #18; CXCL1: 5′-[…] (SEQ ID NO:67), 5′-[…] (SEQ ID NO:68), Probe #52; HGF: 5′-[…] (SEQ ID NO:69), 5′-[…] (SEQ ID NO:70), Probe #49; ILIA: 5′-[…] (SEQ ID NO:71), 5′-[…] (SEQ ID NO:72), Probe #6; IL1B: 5′-[…] (SEQ ID NO:73), 5′-[…] (SEQ ID NO:74), Probe #78; IL6: 5′-[…] (SEQ ID NO:75), 5′-gaaggcagcaggcaacac (SEQ ID NO:76), Probe #45; IL8: 5′-[…] (SEQ ID NO:77), 5′-atggttccttccggtggt (SEQ ID NO:78), Probe #72; IL10: 5′-[…] (SEQ ID NO:79), 5′-[…] (SEQ ID NO:80), Probe #67; MMP3: 5′-[…] (SEQ ID NO:81), 5′-[…] (SEQ ID NO:82), Probe #36; PDGFA: 5′-[…] (SEQ ID NO:83), 5′-[…] […]

[3] = tested on: IL-6 secretion; assay: IL-6 ELISA on non-senescent cells treated with prostaglandins; assay type: cell-based, human; details: 10 μM, 10 days
Experimental: Human fetal lung fibroblasts (IMR-90) were cultured in Dulbecco's modified eagle medium (DMEM) supplemented with 10% FBS and penicillin/streptomycin. LL 29 (AnHa) cells were obtained from the ATCC and growth to confluence using the ATCC protocol, but were subcultured as described for IMR-90 before initiation of all experiments. Quiescence was induced by replacing culture media with media containing 0.2% FBS. MCF-7 and MDA-MB-231 breast cancer cells were cultured in RPMI supplemented with 10% FBS and penicillin/streptomycin. All cells were cultured at 3% O2, and used between 25 and 40 population doublings. All cells were mycoplasma free.
3×10^4 cells in 12-well plates were treated as indicated in the text, and cultured in 0.5-1 ml serum-free DMEM for 24 hr. CM were collected and clarified at 2,000×g for 10 min. Supernatants were transferred to a tube; cells were trypsinized and counted. CM (2.5 μl) were analyzed by bead-based ELISAs (AlphaLISA, Perkin-Elmer) as instructed by the manufacturer and normalized to cell number.

[4] = bleomycin-treated animals, day 14, ELISA

SMILES | histological staining of lungs with picrosirius red ([1]; 21 days after bleomycin) | collagen content (hydroxyproline) ([1]; 21 days after injury) | cysteinyl leukotrienes in bronchioalveolar lavage fluid (BALF) [1, 4] | prostaglandin E2 in bronchioalveolar lavage fluid (BALF) [1, 4] | phosphorylation of cPLA2 ([1]; bleomycin-treated mice, lung, day 14) | RNA levels of p16INK4a and p21WAF1 in lungs ([2]; 14 days after bleomycin injury) | collagen expression (Col3a1 and Col4a1) ([2]; bleomycin-injured mice, 21 days after injury as printed) | mRNA levels of Alox5, Ltc4s, Ptgs2, Ptgds, and Ptges in lungs ([2]; bleomycin-injured mice, day 14) | IL-6 secretion [3]
CC1(C)CCC(c2ccc(Cl)cc2)=C(CN2CCN(c3ccc(C(=O)NS(=O)(=O)c4ccc(N[C@H](CCN5CCOCC5)CSc5ccccc5)c(S(=O)(=O)C(F)(F)F)c4)cc3)CC2)C1 [ABT-263, 4-[4-[[2-(4-chlorophenyl)-5,5-dimethylcyclohexen-1-yl]methyl]piperazin-1--yl]-N-[4-[[(2R)-4-morpholin-4-yl-1-phenylsulfanylbutan-2-yl]amino]-3-(tri-fluoromethylsulfonyl)phenyl]sulfonylbenzamide] | attenuation of the fibrotic response | reduced | reduced | reduced | lowered | significantly attenuated | reduced | lowered these levels to those of PBS-treated animals | 
CCCCC[C@H](O)/C=C/[C@H]1C=CC(=O)[C@@H]1C/C=C\CCCC(=O)O [PGA2] |  |  |  |  |  |  |  |  | elevated
